Results taken from patent US12350475B2 (SUN PHARMACEUTICAL INDUSTRIES LIMITED, priority 2020, dated 2025).
Structures can show the parent of a compound that is named as a salt.

Columns and labels:
[1] = distribution of octreotide in blood (erythrocytes, plasma binding)
From the text: (§1) For patients with acromegaly, there may be a different pharmacokinetic profile.

[2] = pharmacokinetics of octreotide after subcutaneous injection
From the text: as §1

[3] = pharmacokinetics of octreotide after subcutaneous dosing in patients with acromegaly
From the text: as §1

With `C[C@@H](O)[C@@H]1NC(=O)[C@H](CCCCN)NC(=O)[C@@H](Cc2c[nH]c3ccccc23)NC(=O)[C@H](Cc2ccccc2)NC(=O)[C@@H](NC(=O)[C@H](N)Cc2ccccc2)CSSC[C@@H](C(=O)N[C@H](CO)[C@@H](C)O)NC1=O` (relative stereo) [octreotide, L-cysteinamide, D-phenylalanyl-L-cysteinyl-L-phenylalanyl-D-tryptophyl-L-lysyl-L-threonyl-N-[2-hydroxy-1-(hydroxymethyl)propyl]-, cyclic (2#7)-disulfide; [R—(R*, R*)] acetate salt] the “bound in the plasma” value ([1]; concentration-independent manner) was “about 65%”, the “distribution into the erythrocytes” value ([1]; in blood) was “negligible” and the “absorption from the injection site” value ([2]; after subcutaneous injection) was “absorbed completely”. The Vd ([2]; human, plasma, subcutaneous) was roughly 13.6 L, the clearance ([2]; human, plasma, subcutaneous) was 117 to 167 mL/min and the “dose proportionality of peak concentrations and area under the curve values” ([2]; subcutaneous single doses up to 500 μg and multiple doses up to 500 μg three times a day (1,500 μg/day)) was “dose proportional”. The peak concentration ([2]; subcutaneous, dose of 100 μg) was “about 5.2 ng/mL”, the “time to peak concentration after dosing” value ([2]; subcutaneous, dose of 100 μg) was 0.4 h and the Vd ([3]; human, in vivo, subcutaneous) was roughly 21.6 L. The clearance ([3]; human, in vivo, subcutaneous) was roughly 300 mL/min, the “time to mean peak concentration after subcutaneous dosing” value ([3]; patients with acromegaly, 100 μg dose) was “about 0.7 hours” and the mean peak concentration ([3]; patients with acromegaly, subcutaneous, 100 μg dose) was “about 2.8 ng/mL”.
